Reference: patent US10435375B2, “CXCR4 chemokine receptor modulators” (NORTHWESTERN UNIVERSITY, priority 2015, dated 2019)
“Also recorded” adds a separate entry of the source.

Assays:
CXCR4 [1] = target: T1, CXCR4 (Homo sapiens, UniProt P61073); assay: Calcium imaging ((Ca)i mobilization) assay, fura-2, C8161 melanoma cells; assay type: cell-based; parameters: human melanoma cell line C8161 was initially used, which expresses numerous human CXCR4 receptors; endogenous in cells; host or cells: C8161 human melanoma cells; conditions: for own (Ca)i response (agonist effect): compounds 10 μM where stated, SDF-1 100 nM; for Pharmacology: Table 2, agonist or antagonist; for IC50: multiple concentrations, dose-response, read-out: estimated IC50 (antagonism of SDF-1 (Ca)i response); for effect on SDF-1-induced (Ca)i response: test compounds 10 μM; for Ca^2+ Assay: Table 1, calcium imaging behavior; for compound's (Ca)i response in presence of CXCR4 antagonist AMD3100: AMD3100 1 μM where stated
Text: The initial assay for examining the activity of different molecules was based on the fact that activation of CXCR4 receptors produces an increase in the intracellular free Ca^2+ concentration (Ca)i. This signal can easily be observed using a fluorescent Ca^2+ sensing dye such as fura-2. The quantitative nature of this assay makes it ideal for screening purposes. Moreover, the assay can also distinguish potential antagonists from potential agonists. The aggressive human melanoma cell line C8161 was initially used, which expresses numerous human CXCR4 receptors and produces strong (Ca)I signals when stimulated with SDF-1 (FIG. 3). In the assay, cells were usually stimulated twice with SDF-1. […] To test a drug, the compound in question was usually added prior to the second stimulation with SDF-1. At this point it was possible to observe whether the compound itself acted as an agonist by giving its own response or if it reduced the magnitude of the second response to SDF-1. […] Each of the four antagonists were then assayed at multiple concentrations to obtain a dose-response relationship and an estimated IC50. Antagonists NUCC-388, 397, 392, and 51420 had IC50 values of 0.3 μM, 3 μM, 1 μM, and 1 μM respectively.

CXCR4-YFP = target: T2, CXCR4-YFP (Homo sapiens, UniProt P61073); assay: Internalization of YFP-tagged CXCR4 receptors in HEK293 cells; assay type: cell-based; conditions: for inhibition of NUCC-390-induced CXCR4-YFP internalization: AMD3100 1 μM; for CXCR4-YFP receptor internalization: 2 hours, SDF-1 100 nM, NUCC-390 10 μM
T2 construct: expressed in transfected cells; host or cells: HEK293 cells

C8161 cells = assay: Chemotaxis of C8161 cells, Boyden chamber assay; assay type: cell-based, human; conditions: SDF-1 100 nM, NUCC-390 10 μM, p<0.01, n=6
Text: Chemokines are well known for their ability to stimulate chemotaxis of leukocytes and stem cells. In order to further establish the biological activity of the CXCR4 agonists, the ability of SDF-1 and NUCC-390 to produce chemotaxis of C8161 cells was compared using a Boyden chamber assay.

CXCR4 [2] = target: T1, CXCR4; assay: ERK activation (pERK, Western blot) in C8161 cells; assay type: cell-based; parameters: human melanoma cell line C8161 was initially used, which expresses numerous human CXCR4 receptors; endogenous in cells; host or cells: C8161 human melanoma cells; conditions: SDF-1 100 nM, NUCC-390 10 μM, 30 min
Text: To further explore the agonist potential of compound NUCC-390, changes in signaling downstream of CXCR4 were examined. For these experiments, lysates were collected from treated C8161 cells and analyzed them using Western blot. […] That drug NUCC-390 has the capability of stimulating signaling activity downstream of CXCR4 receptors further supports the observation that NUCC-390 acts as a CXCR4 agonist.

U937 cells = assay: Cell viability assay, U937 cells, with Ara-C; assay type: cell-based
Method: FIG. 20. Cell viability assay with agonist NUCC-390 and known chemotherapeutics. The first bar is viability no NUCC-390 or Ara-C. Otherwise, the concentration of NUCC-390 was maintained at 50 μM in all experiments. U937 cells were treated with NUCC-390 and the indicated concentration of Ara-C.

CXCR4 [3] = target: T1, CXCR4; assay: (Ca)i mobilization assay using CXCR4 expressing U87 cells; assay type: cell-based; parameters: host or cells: U87 glioblastoma cells
[4] = C8161 cells, listed as NUCC-398
[5] = C8161 cells, listed as NUCC-390

T2 sequence (P61073 whole entry): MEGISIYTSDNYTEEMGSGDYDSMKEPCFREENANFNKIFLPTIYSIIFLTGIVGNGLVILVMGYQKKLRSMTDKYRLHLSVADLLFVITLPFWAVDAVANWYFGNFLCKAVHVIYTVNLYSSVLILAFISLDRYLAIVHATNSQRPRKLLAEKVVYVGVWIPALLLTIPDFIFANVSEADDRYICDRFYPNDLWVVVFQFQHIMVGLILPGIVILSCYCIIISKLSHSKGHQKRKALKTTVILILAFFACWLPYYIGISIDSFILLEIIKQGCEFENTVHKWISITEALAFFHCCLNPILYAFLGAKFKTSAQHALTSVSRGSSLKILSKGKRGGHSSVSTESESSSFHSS
T1 sequence (P61073 whole entry): as above

Row | own (Ca)i response (agonist effect) (CXCR4 [1]; C8161 cells) | Pharmacology (CXCR4 [1]) | Ca^2+ Assay (CXCR4 [1]) | effect on SDF-1-induced (Ca)i response (CXCR4 [1]; C8161 cells) | Molecule | also measured
1 | robust calcium response | Agonist |  |  | CCCn1nc(C(=O)N(C)C)c2c1CCC(NCCCN1CCCC1=O)C2 (stereo not drawn) [NUCC-0176311] | 
2 |  | Antagonist | Antagonist |  | CN(C)CCNC1CCc2c(c(C(=O)N(C)Cc3ccccc3)nn2C)C1 (stereo not drawn) [NUCC-0000388] | inhibition of NUCC-390-induced CXCR4-YFP internalization (CXCR4-YFP): completely inhibited; inhibition of NUCC-390-induced (Ca)i response (CXCR4 [1]; C8161 cells): inhibited; IC50 (CXCR4 [1]; C8161 cells): 300 nM; effect on SDF-1-induced (Ca)i response (CXCR4 [1]; C8161 cells, listed as NUCC-388): antagonized the effects of SDF-1; also recorded: blocks the effect of SDF-1; also recorded: completely inhibited the second addition of SDF-1
3 | two strong (Ca)i responses |  |  |  | SDF-1: cognate agonist for CXCR4, the 93 amino acid protein CXCL12 (SDF-1) | CXCR4-YFP receptor internalization (CXCR4-YFP): pronounced internalization of CXCR4-YFP; also recorded: causes most of the CXCR4 receptor to become internalized; chemotaxis (C8161 cells): robust chemotactic activity; level of phosphorylated ERK (pERK) (CXCR4 [2]): increased levels of phosphorylated ERK; also recorded: Increase in pERK
4 | robust calcium response | Antagonist |  | blocks the effect of SDF-1 | Cn1nc(C(=O)N2CCCCC2)c2c1CCC(NCc1ccc(F)cc1)C2 (stereo not drawn) [NUCC-0176290] | 
5 | robust calcium response | Agonist |  |  | CCCn1nc(C(=O)N(C)C)c2c1CCC(NCCc1cccnc1)C2 (stereo not drawn) [NUCC-0176308] | compound's (Ca)i response in presence of CXCR4 antagonist AMD3100 (CXCR4 [1]; C8161 cells): prevented calcium signaling
6 |  | Agonist | Agonist |  | COCCNC(=O)c1nn(CCC(C)C)c2c1CN(Cc1ncc[nH]1)CC2 [NUCC-0000398, 5-((1H-imidazol-2-yl)methyl)-1-isopentyl-N-(2-methoxyethyl)-4,5,6,7-tetrahydro-1H-pyrazolo(4,3-c)pyridine-3-carboxamide] | compound's (Ca)i response in presence of CXCR4 antagonist AMD3100 (CXCR4 [1]; [4]): completely inhibited; also recorded: inhibited by AMD3100; own (Ca)i response (agonist effect) (CXCR4 [1]; [4]): produced their own response; also recorded: robust agonist activity; also recorded: Agonist effects
7 |  | Agonist | Agonist |  | CCCn1nc(C(=O)N2CCCCC2)c2c1CCC(NCCc1ccncc1)C2 (stereo not drawn) [NUCC-0000390, Piperidin-1-yl(1-propyl-5-((2-(pyridin-4-yl)ethyl)amino)-4,5,6,7-tetrahydro-1H-indazol-3-yl)methanone] | CXCR4-YFP receptor internalization (CXCR4-YFP): causes most of the CXCR4 receptor to become internalized; chemotaxis (C8161 cells): matched by the effects of NUCC-390; effect on cell viability, compound alone (U937 cells; NUCC-390 50 μM): only a modest effect by itself; effect on cytotoxicity of Ara-C in combination (U937 cells; NUCC-390 50 μM plus Ara-C): significantly increased the cytotoxicity of Ara-C; compound's (Ca)i response in presence of CXCR4 antagonist AMD3100 (CXCR4 [1]; [5]): completely inhibited; also recorded: completely blocked by AMD3100; own (Ca)i response (agonist effect) (CXCR4 [1]; [5]): produced their own response; also recorded: effects were similar to those produced by SDF-1; also recorded: strong (Ca)i response; also recorded: produced agonist effects; level of phosphorylated ERK (pERK) (CXCR4 [2]): increased levels of pERK; also recorded: Increase in pERK
8 |  | Agonist |  |  | COCCn1c(C(=O)OC)c(NC(=O)CCc2ccccc2)c2cc(NCCC(C)c3ccccc3)cnc21 (stereo not drawn) [NUCC-0000393] | 
9 |  |  | Antagonist |  | COC(=O)c1c(NC(=O)[C@H]2CCOC2)c2cc(NC[C@H](C)Cc3ccc4c(c3)OCO4)cnc2n1CCCc1ccccc1 [NUCC-0000392] | 
10 |  | Antagonist |  | blocks the effect of SDF-1 | CCCn1nc(C(=O)N(C)Cc2ccccc2)c2c1CCC(NCCc1ccncc1)C2 (stereo not drawn) [NUCC-0176299] | own (Ca)i response (agonist effect) (CXCR4 [3]): robust calcium response
11 | robust calcium response | Agonist |  |  | CCCn1nc(C(=O)N(C)Cc2ccccc2)c2c1CCC(NCc1ccc(F)cc1)C2 (stereo not drawn) [NUCC-0176303] | 
12 | robust agonist activity | Agonist | Antagonist |  | CCCn1nc(C(=O)N2CCCCC2)c2c1CCC(NCCc1cccnc1)C2 (stereo not drawn) [NUCC-0054118, Piperidin-1-yl(1-propyl-5-((2-(pyridin-3-yl)ethyl)amino)-4,5,6,7-tetrahydro-1H-indazol-3-yl)methanone] | compound's (Ca)i response in presence of CXCR4 antagonist AMD3100 (CXCR4 [1]; C8161 cells): inhibited by AMD3100
13 |  | Antagonist |  | blocks the effect of SDF-1 | Cn1nc(C(=O)N2CCCCC2)c2c1CCC(NCCCN1CCOCC1)C2 (stereo not drawn) [NUCC-0176288] | own (Ca)i response (agonist effect) (CXCR4 [3]): robust calcium response
14 | robust agonist activity | Agonist | Agonist |  | CCCn1nc(C(=O)N2CCCCC2)c2c1CCC(NCCCN1CCOCC1)C2 (stereo not drawn) [NUCC-0054127] | compound's (Ca)i response in presence of CXCR4 antagonist AMD3100 (CXCR4 [1]; C8161 cells): inhibited by AMD3100
15 |  | Antagonist | Agonist | antagonized the effects of SDF-1 | CCCn1nc(C(=O)N2CCCCC2)c2c1CCC(NCCCN1CCCC1=O)C2 (stereo not drawn) [NUCC-0054120, 1-(3-((3-(Piperidine-1-carbonyl)-1-propyl-4,5,6,7-tetrahydro-1H-indazol-5-yl)amino)propyl)pyrrolidin-2-one] | IC50 (CXCR4 [1]; C8161 cells): 1000 nM
16 | robust calcium response | Agonist |  |  | CCCn1nc(C(=O)N2CCCCC2)c2c1CCC(NCc1ccc(F)cc1)C2 (stereo not drawn) [NUCC-0176306] | compound's (Ca)i response in presence of CXCR4 antagonist AMD3100 (CXCR4 [1]; C8161 cells): prevented calcium signaling
17 |  | Antagonist |  | antagonized the effects of SDF-1 | COC(=O)c1c(NC(=O)C2CCOC2)c2cc(NCC(C)Cc3ccc4c(c3)OCO4)cnc2n1CCCc1ccccc1 (stereo not drawn) [NUCC-0000392] | IC50 (CXCR4 [1]; C8161 cells): 1000 nM
18 |  | Agonist |  |  | Cc1ncsc1CCn1nc(C(=O)NC2CC2)c2c1CCN(Cc1ccc3c(c1)OCO3)C2 [NUCC-0000387] | 
19 | robust calcium response | Agonist |  |  | CCCn1nc(C(=O)N(C)Cc2ccccc2)c2c1CCC(NCCCN1CCOCC1)C2 (stereo not drawn) [NUCC-0176301] | compound's (Ca)i response in presence of CXCR4 antagonist AMD3100 (CXCR4 [1]; C8161 cells): prevented calcium signaling

Row | Molecule | own (Ca)i response (agonist effect) (CXCR4 [1]; C8161 cells) | Pharmacology (CXCR4 [1]) | Ca^2+ Assay (CXCR4 [1]) | effect on SDF-1-induced (Ca)i response (CXCR4 [1]; C8161 cells) | also measured
20 | c1cc(CN2CCCNCCNCCCNCC2)ccc1CN1CCCNCCNCCCNCC1 [AMD3100, reference compound] |  |  |  | completely blocked stimulation with SDF-1; also recorded: blocked the effects of SDF-1 | inhibition of NUCC-390-induced CXCR4-YFP internalization (CXCR4-YFP): blocks internalization; inhibition of NUCC-390-induced CXCR4-YFP internalization (CXCR4-YFP; listed as AMD-3100): completely inhibited
